Read-outs that look alike come from different tables or passages of the source.
Legend:
SK-MEL-5 = assay: NCI-60 SRB growth inhibition, one-dose and five-dose; assay type: cell-based; conditions: Homo sapiens
OVCAR-4 = assay: as above; assay type: cell-based; conditions: Homo sapiens
UACC-257 = assay: as above; assay type: cell-based; conditions: Homo sapiens
OVCAR-3 = assay: as above; assay type: cell-based; conditions: Homo sapiens
SK-MEL-28 = assay: as above; assay type: cell-based; conditions: Homo sapiens
SK-MEL-2 = assay: as above; assay type: cell-based; conditions: Homo sapiens, SK-MEL-2, read-out: percent growth inhibition
M14 = assay: as above; assay type: cell-based; conditions: Homo sapiens
NCI/ADR-RES = assay: as above; assay type: cell-based; conditions: Homo sapiens
COLO 205 = assay: as above; assay type: cell-based; conditions: Homo sapiens
HCT-15 = assay: as above; assay type: cell-based; conditions: Homo sapiens
786-0 = assay: as above; assay type: cell-based; conditions: Homo sapiens
NCI-H460 = assay: as above; assay type: cell-based; conditions: Homo sapiens
BT-549 = assay: as above; assay type: cell-based; conditions: Homo sapiens
OVCAR-5 = assay: as above; assay type: cell-based; conditions: Homo sapiens
LOX IMVI = assay: as above; assay type: cell-based; conditions: Homo sapiens
EKVX = assay: as above; assay type: cell-based; conditions: Homo sapiens
K-562 = assay: as above; assay type: cell-based; conditions: Homo sapiens
U251 = assay: as above; assay type: cell-based; conditions: Homo sapiens
SNB-19 = assay: as above; assay type: cell-based; conditions: Homo sapiens
MCF7 = assay: as above; assay type: cell-based; conditions: Homo sapiens
SK-OV-3 = assay: as above; assay type: cell-based; conditions: Homo sapiens
HT29 = assay: as above; assay type: cell-based; conditions: Homo sapiens
DU-145 = assay: as above; assay type: cell-based; conditions: Homo sapiens
NCI-H23 = assay: as above; assay type: cell-based; conditions: Homo sapiens
[1] = tested on: NCI 60-cell line panel (full panel); assay: NCI-60 SRB growth inhibition, full panel mean / MG-MID; assay type: cell-based, human; conditions: for GI50: Homo sapiens, 60 cell
CCRF-CEM = assay: NCI-60 SRB growth inhibition, one-dose and five-dose; assay type: cell-based; conditions: Homo sapiens
A498 = assay: as above; assay type: cell-based; conditions: Homo sapiens
MALME-3M = assay: as above; assay type: cell-based; conditions: Homo sapiens
A549/ATCC = assay: as above; assay type: cell-based; conditions: Homo sapiens
SR = assay: as above; assay type: cell-based; conditions: Homo sapiens
SF-268 = assay: as above; assay type: cell-based; conditions: Homo sapiens
SW-620 = assay: as above; assay type: cell-based; conditions: Homo sapiens
NCI-H522 = assay: as above; assay type: cell-based; conditions: Homo sapiens
HOP-92 = assay: as above; assay type: cell-based; conditions: Homo sapiens
T-47D = assay: as above; assay type: cell-based; conditions: Homo sapiens, T47D
SNB-75 = assay: as above; assay type: cell-based; conditions: Homo sapiens
MOLT-4 = assay: as above; assay type: cell-based; conditions: Homo sapiens
RXF 393 = assay: as above; assay type: cell-based; conditions: Homo sapiens
SF-295 = assay: as above; assay type: cell-based; conditions: Homo sapiens
NCI-H322M = assay: as above; assay type: cell-based; conditions: Homo sapiens
CAKI-1 = assay: as above; assay type: cell-based; conditions: Homo sapiens
MDA-MB-468 = assay: as above; assay type: cell-based; conditions: Homo sapiens
[2] = read-out: percent growth inhibition

## O=C(/C=C/c1cccnc1)c1cccc(NCc2csc3ccccc23)c1 [Compound 5d, (E)-1–(3-((benzo[b]thiophen-3-ylmethyl)amino)phenyl)-3-(pyridin-3-yl)prop-2-en-1-one]
SK-MEL-5; SK-MEL-5
  GI50: 2.89 µM
SK-MEL-5; SK-MEL-5, read-out: percent growth inhibition
  inhibition at 10 µM: 163%
OVCAR-4; OVCAR-4
  GI50: 4.27 µM
OVCAR-4; OVCAR-4, read-out: percent growth inhibition
  inhibition at 10 µM: 82.5%
UACC-257; UACC-257
  GI50: 5.58 µM
UACC-257; UACC-257, read-out: percent growth inhibition
  inhibition at 10 µM: 105%
OVCAR-3; OVCAR-3
  GI50: 3.19 µM
OVCAR-3; OVCAR-3, read-out: percent growth inhibition
  inhibition at 10 µM: 157%
SK-MEL-28; SK-MEL-28
  GI50: 3.55 µM
SK-MEL-28; SK-MEL-28, read-out: percent growth inhibition
  inhibition at 10 µM: 145%
SK-MEL-2
  inhibition at 10 µM: 74%
M14; M14
  GI50: 4.14 µM
M14; M14, read-out: percent growth inhibition
  inhibition at 10 µM: 129%
NCI/ADR-RES
  GI50: 2.15 µM
NCI/ADR-RES; [2]
  inhibition at 10 µM: 101%
COLO 205; COLO 205
  GI50: 11.6 µM
COLO 205; COLO 205, read-out: percent growth inhibition
  inhibition at 10 µM: 86.5%
HCT-15; HCT-15
  GI50: 1.92 µM
HCT-15; HCT-15, read-out: percent growth inhibition
  inhibition at 10 µM: 141%
786-0; 786-0
  GI50: 8.65 µM
786-0; 786-0, read-out: percent growth inhibition
  inhibition at 10 µM: 182%
NCI-H460; NCI-H460
  GI50: 4.98 µM
NCI-H460; NCI-H460, read-out: percent growth inhibition
  inhibition at 10 µM: 91.3%
BT-549; BT-549
  GI50: 2.75 µM
BT-549; BT-549, read-out: percent growth inhibition
  inhibition at 10 µM: 174%
OVCAR-5; OVCAR-5
  GI50: 7.07 µM
OVCAR-5; OVCAR-5, read-out: percent growth inhibition
  inhibition at 10 µM: 91.5%
LOX IMVI
  GI50: 1.69 µM
LOX IMVI; [2]
  inhibition at 10 µM: 198%
EKVX
  GI50: 3.98 µM
EKVX; [2]
  inhibition at 10 µM: 106%
K-562; K562
  GI50: 3.14 µM
K-562; K562, read-out: percent growth inhibition
  inhibition at 10 µM: 111%
U251; U-251
  GI50: 1.92 µM
U251; U-251, read-out: percent growth inhibition
  inhibition at 10 µM: 198%
SNB-19; SNB-19
  GI50: 3.86 µM
SNB-19; SNB-19, read-out: percent growth inhibition
  inhibition at 10 µM: 134%
MCF7; MCF7
  GI50: 1.58 µM
MCF7; MCF7, read-out: percent growth inhibition
  inhibition at 10 µM: 176%
SK-OV-3; SK-OV-3
  GI50: 11.8 µM
SK-OV-3; SK-OV-3, read-out: percent growth inhibition
  inhibition at 10 µM: 35.8%
HT29; HT-29
  GI50: 3.12 µM
HT29; HT-29, read-out: percent growth inhibition
  inhibition at 10 µM: 165%
DU-145; DU-145
  GI50: 7.35 µM
DU-145; DU-145, read-out: percent growth inhibition
  inhibition at 10 µM: 71.9%
NCI-H23; NCI-H23
  GI50: 3.94 µM
NCI-H23; NCI-H23, read-out: percent growth inhibition
  inhibition at 10 µM: 139%
[1]; read-out: Full panel GI50 mean
  GI50: 4.74 µM
[1]; read-out: Full panel MG-MID GI50
  GI50: 4.74 µM
[1]; mean over NCI-60 panel, single dose 10 µM
  Full panel Mean GI %: 120.02%
CCRF-CEM
  GI50: 3.01 µM
CCRF-CEM; [2]
  inhibition at 10 µM: 134%
A498; A498
  GI50: 12.1 µM
A498; A498, read-out: percent growth inhibition
  inhibition at 10 µM: 36.5%
MALME-3M
  GI50: 5.92 µM
MALME-3M; [2]
  inhibition at 10 µM: 104%
A549/ATCC; A549
  GI50: 11.5 µM
A549/ATCC; A549, read-out: percent growth inhibition
  inhibition at 10 µM: 53.1%
SR
  GI50: 2.51 µM
SF-268; SF-268
  GI50: 12 µM
SF-268; SF-268, read-out: percent growth inhibition
  inhibition at 10 µM: 69.7%
SW-620; SW-620
  GI50: 1.84 µM
SW-620; SW-620, read-out: percent growth inhibition
  inhibition at 10 µM: 166%
NCI-H522; NCI-H522
  GI50: 1.78 µM
NCI-H522; NCI-H522, read-out: percent growth inhibition
  inhibition at 10 µM: 170%
HOP-92; HOP-92
  GI50: 10.2 µM
HOP-92; HOP-92, read-out: percent growth inhibition
  inhibition at 10 µM: 39.4%
T-47D
  GI50: 2.83 µM
T-47D; [2]
  inhibition at 10 µM: 91.2%
SNB-75; SNB-75
  GI50: 3.34 µM
SNB-75; SNB-75, read-out: percent growth inhibition
  inhibition at 10 µM: 69.9%
MOLT-4; MOLT-4
  GI50: 3.16 µM
MOLT-4; MOLT-4, read-out: percent growth inhibition
  inhibition at 10 µM: 114%
RXF 393; RXF 393
  GI50: 4.67 µM
RXF 393; RXF 393, read-out: percent growth inhibition
  inhibition at 10 µM: 177%
SF-295; SF-295
  GI50: 5.12 µM
SF-295; SF-295, read-out: percent growth inhibition
  inhibition at 10 µM: 92.9%
NCI-H322M
  GI50: 11.5 µM
NCI-H322M; [2]
  inhibition at 10 µM: 42.6%
CAKI-1; CAKI-1
  GI50: 9.3 µM
CAKI-1; CAKI-1, read-out: percent growth inhibition
  inhibition at 10 µM: 98.3%
MDA-MB-468; MDA-MB-468
  GI50: 1.82 µM
MDA-MB-468; MDA-MB-468, read-out: percent growth inhibition
  inhibition at 10 µM: 162%

Reference: article PMC11003488 (Journal of Enzyme Inhibition and Medicinal Chemistry, 2023)
